{"source": "paper PMC7206119", "about": "“RIP1 inhibition blocks inflammatory diseases but not tumor growth or metastases” (Cell Death and Differentiation, 2019)", "assay_in_all_cases": "biochemical", "set-up_in_all_cases": "DiscoverX kinase panel, active-site competition binding (KINOMEscan type), percent of control at one concentration", "settings_in_all_cases": "competition binding, percent of control", "key": {"MAP3K3": {"target": "MAP3K3 (Homo sapiens, UniProt Q99759)", "sequence (Q99759 whole entry)": "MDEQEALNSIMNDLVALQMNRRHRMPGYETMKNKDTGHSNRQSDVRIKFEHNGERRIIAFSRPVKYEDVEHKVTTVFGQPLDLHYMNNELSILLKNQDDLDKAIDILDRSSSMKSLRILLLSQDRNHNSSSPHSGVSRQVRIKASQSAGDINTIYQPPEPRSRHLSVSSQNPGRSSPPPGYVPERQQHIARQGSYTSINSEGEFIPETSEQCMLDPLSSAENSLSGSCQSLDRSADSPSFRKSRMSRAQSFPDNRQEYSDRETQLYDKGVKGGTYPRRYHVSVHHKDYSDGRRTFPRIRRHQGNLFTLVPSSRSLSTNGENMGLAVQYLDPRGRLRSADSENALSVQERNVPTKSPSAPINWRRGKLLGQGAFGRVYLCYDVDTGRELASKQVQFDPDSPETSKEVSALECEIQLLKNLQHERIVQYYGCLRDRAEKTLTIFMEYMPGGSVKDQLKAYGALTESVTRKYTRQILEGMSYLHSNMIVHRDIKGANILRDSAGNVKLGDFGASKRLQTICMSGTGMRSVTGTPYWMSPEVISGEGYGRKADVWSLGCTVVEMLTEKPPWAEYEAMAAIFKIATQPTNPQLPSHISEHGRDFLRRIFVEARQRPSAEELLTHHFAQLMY"}, "ALK(C1156Y)": {"target": "ALK(C1156Y) (Homo sapiens, UniProt Q9UM73, C1156Y)", "sequence (Q9UM73 whole entry C1156Y)": "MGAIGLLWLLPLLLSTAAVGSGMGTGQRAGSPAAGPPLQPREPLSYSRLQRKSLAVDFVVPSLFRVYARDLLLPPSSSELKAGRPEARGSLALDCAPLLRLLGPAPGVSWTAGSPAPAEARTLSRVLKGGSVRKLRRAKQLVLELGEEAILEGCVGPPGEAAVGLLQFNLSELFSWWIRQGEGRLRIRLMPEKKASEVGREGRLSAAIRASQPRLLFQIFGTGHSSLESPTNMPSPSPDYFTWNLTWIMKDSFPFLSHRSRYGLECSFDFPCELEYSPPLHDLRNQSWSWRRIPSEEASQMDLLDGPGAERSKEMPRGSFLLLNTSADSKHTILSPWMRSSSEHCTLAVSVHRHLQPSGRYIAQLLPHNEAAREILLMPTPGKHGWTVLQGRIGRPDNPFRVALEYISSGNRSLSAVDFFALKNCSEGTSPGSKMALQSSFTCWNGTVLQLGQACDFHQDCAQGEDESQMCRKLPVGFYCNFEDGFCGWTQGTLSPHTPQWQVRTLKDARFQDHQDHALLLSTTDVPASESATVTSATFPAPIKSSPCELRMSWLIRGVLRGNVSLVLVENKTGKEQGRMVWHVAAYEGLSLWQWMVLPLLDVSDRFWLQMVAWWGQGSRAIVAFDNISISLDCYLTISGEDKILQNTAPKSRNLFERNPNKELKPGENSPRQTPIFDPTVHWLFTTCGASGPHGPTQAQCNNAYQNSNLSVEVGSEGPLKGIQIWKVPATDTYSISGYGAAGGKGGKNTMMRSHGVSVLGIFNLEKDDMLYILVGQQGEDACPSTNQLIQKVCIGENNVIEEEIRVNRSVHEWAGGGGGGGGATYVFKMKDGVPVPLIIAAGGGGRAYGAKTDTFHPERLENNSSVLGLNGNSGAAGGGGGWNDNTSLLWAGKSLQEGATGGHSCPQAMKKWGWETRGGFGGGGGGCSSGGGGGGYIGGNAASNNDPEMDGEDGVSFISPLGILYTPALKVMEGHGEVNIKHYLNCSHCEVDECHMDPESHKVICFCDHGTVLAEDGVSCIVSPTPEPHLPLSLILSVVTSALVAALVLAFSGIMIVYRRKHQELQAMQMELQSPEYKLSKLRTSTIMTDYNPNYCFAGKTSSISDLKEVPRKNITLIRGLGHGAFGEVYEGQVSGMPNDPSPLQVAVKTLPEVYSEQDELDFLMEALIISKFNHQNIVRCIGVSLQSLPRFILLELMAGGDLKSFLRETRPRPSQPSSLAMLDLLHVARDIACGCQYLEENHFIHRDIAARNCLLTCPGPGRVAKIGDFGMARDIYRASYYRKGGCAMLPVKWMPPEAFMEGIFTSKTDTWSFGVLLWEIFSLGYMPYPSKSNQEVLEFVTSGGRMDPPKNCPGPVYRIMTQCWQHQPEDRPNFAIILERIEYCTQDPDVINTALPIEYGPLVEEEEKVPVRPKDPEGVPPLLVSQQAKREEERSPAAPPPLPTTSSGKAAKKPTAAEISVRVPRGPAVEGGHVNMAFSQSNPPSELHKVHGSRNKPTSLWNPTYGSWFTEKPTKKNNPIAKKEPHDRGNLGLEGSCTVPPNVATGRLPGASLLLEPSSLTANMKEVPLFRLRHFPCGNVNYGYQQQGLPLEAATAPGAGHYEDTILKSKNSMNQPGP"}, "DRAK2": {"target": "T1, DRAK2 (Homo sapiens, UniProt O94768)", "T1 construct": "gene STK17B"}, "MRCKA": {"target": "T2, MRCKA (Homo sapiens, UniProt Q5VT25)", "T2 construct": "gene CDC42BPA"}, "p38-alpha": {"target": "T3, p38-alpha (Homo sapiens, UniProt Q16539)", "T3 construct": "gene MAPK14"}, "CSNK2A2": {"target": "CSNK2A2 (Homo sapiens, UniProt P19784)", "sequence (P19784 whole entry)": "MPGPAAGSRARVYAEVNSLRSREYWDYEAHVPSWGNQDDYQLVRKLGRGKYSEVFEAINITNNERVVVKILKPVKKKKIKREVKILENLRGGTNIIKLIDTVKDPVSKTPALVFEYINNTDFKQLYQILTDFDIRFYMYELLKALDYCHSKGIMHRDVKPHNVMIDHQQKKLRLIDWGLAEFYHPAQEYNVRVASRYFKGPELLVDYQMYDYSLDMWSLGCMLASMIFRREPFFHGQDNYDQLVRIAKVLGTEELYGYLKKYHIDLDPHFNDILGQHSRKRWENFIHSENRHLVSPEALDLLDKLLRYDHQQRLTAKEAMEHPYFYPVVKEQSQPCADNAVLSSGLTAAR"}, "LCK": {"target": "LCK (Homo sapiens, UniProt P06239)", "sequence (P06239 whole entry)": "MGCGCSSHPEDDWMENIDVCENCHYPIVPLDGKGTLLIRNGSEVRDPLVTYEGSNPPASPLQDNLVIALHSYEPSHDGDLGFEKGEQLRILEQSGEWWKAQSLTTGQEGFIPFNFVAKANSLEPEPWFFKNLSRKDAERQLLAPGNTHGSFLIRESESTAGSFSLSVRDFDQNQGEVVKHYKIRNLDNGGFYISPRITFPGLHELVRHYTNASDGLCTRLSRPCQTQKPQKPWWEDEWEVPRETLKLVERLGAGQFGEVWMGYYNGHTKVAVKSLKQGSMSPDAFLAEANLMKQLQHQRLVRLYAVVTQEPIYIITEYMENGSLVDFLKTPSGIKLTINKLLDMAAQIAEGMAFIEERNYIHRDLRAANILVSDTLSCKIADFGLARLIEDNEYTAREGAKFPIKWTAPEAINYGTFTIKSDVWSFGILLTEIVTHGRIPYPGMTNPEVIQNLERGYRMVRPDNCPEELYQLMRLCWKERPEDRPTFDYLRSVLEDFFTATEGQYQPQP"}, "MEK5": {"target": "T4, MEK5 (Homo sapiens, UniProt Q13163)", "T4 construct": "gene MAP2K5"}, "CDK8": {"target": "CDK8 (Homo sapiens, UniProt P49336)", "sequence (P49336 whole entry)": "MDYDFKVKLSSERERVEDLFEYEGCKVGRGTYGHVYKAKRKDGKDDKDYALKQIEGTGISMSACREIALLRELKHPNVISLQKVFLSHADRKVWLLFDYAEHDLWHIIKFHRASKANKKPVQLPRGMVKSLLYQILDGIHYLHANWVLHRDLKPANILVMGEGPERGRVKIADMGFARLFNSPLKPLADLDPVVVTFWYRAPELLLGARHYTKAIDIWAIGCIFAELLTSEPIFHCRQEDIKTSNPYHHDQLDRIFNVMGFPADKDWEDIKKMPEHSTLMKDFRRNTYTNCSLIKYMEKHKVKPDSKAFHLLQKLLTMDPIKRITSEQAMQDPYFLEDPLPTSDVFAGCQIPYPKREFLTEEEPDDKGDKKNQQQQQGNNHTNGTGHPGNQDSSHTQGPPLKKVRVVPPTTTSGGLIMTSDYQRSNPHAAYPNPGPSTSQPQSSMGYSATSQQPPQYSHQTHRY"}, "CSNK1G2": {"target": "CSNK1G2 (Homo sapiens, UniProt P78368)"}, "ERK1": {"target": "T5, ERK1 (Homo sapiens, UniProt P27361)", "T5 construct": "gene MAPK3"}, "MARK3": {"target": "MARK3 (Homo sapiens, UniProt P27448)"}, "ABL1-phosphorylated": {"target": "T6, ABL1-phosphorylated (Homo sapiens, UniProt P00519)", "T6 construct": "phosphorylated"}, "AAK1": {"target": "AAK1 (Homo sapiens, UniProt Q2M2I8)"}, "CDK3": {"target": "CDK3 (Homo sapiens, UniProt Q00526)"}, "NDR2": {"target": "T7, NDR2 (Homo sapiens, UniProt Q9Y2H1)", "T7 construct": "gene STK38L"}, "SBK1": {"target": "SBK1 (Homo sapiens, UniProt Q52WX2)", "sequence (Q52WX2 whole entry)": "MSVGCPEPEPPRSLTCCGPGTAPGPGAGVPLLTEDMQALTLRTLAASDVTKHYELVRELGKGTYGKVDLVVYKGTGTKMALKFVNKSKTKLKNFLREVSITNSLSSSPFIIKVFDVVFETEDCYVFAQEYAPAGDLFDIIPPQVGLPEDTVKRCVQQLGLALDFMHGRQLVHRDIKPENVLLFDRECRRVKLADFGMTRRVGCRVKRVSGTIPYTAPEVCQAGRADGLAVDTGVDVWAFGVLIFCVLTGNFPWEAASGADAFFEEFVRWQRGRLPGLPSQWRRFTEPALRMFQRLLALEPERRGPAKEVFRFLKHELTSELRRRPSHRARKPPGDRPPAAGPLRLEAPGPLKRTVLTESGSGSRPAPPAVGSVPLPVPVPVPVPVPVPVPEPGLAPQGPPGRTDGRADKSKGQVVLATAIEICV"}, "KIT-autoinhibited": {"target": "KIT-autoinhibited (Homo sapiens, UniProt P10721)", "sequence (P10721 whole entry)": "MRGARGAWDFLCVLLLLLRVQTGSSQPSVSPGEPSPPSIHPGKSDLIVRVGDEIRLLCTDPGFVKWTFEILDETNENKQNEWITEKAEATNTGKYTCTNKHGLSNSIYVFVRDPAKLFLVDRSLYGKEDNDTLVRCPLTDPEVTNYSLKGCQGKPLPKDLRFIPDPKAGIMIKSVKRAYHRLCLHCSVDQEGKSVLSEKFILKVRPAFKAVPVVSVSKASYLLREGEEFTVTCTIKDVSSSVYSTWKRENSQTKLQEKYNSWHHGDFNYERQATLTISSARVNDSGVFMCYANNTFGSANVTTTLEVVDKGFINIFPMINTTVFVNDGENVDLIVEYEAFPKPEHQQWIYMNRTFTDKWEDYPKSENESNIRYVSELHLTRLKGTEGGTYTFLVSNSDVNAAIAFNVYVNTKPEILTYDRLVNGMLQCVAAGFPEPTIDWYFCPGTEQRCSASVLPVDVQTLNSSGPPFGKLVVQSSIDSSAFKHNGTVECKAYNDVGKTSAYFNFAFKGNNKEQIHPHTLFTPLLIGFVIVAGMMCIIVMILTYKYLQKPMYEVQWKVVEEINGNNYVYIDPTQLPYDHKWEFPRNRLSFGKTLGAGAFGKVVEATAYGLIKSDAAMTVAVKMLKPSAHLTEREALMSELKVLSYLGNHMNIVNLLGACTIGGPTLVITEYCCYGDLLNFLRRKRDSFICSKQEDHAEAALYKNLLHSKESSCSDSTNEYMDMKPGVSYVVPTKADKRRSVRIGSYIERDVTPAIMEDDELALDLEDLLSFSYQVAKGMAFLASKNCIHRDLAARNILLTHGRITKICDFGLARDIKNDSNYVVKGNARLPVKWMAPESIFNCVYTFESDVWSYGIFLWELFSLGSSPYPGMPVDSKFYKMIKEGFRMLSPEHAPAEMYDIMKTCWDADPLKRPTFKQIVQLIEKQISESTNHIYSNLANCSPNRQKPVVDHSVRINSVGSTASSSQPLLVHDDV"}, "PIK3CA(E545A)": {"target": "PIK3CA(E545A) (Homo sapiens, UniProt P42336, E545A)"}, "CSNK1G3": {"target": "CSNK1G3 (Homo sapiens, UniProt Q9Y6M4)"}, "PIK3C2B": {"target": "PIK3C2B (Homo sapiens, UniProt O00750)"}}}
{"smiles": "COc1cc2c(cn1)N(C)C(=O)[C@@H](NC(=O)c1nc3n(n1)[C@H](c1ccccc1)CC3)CC2", "note": "[GNE684, (S)-N-((S)-7-methoxy-1-methyl-2-oxo-2,3,4,5-tetrahydro-1H-pyrido[3,4-b]azepin-3-yl)-5-phenyl-6,7-dihydro-5H-pyrrolo[1,2-b][1,2,4]triazole-2-carboxamide]", "values": [{"measurement": "remaining binding at 10 µM", "setting": "MAP3K3", "result": 98, "unit": "%"}, {"measurement": "remaining binding at 10 µM", "setting": "ALK(C1156Y)", "result": 96, "unit": "%"}, {"measurement": "remaining binding at 10 µM", "setting": "DRAK2", "result": 100, "unit": "%"}, {"measurement": "remaining binding at 10 µM", "setting": "MRCKA", "result": 100, "unit": "%"}, {"measurement": "remaining binding at 10 µM", "setting": "p38-alpha", "result": 95, "unit": "%"}, {"measurement": "remaining binding at 10 µM", "setting": "CSNK2A2", "result": 85, "unit": "%"}, {"measurement": "remaining binding at 10 µM", "setting": "LCK", "result": 86, "unit": "%"}, {"measurement": "remaining binding at 10 µM", "setting": "MEK5", "result": 80, "unit": "%"}, {"measurement": "remaining binding at 10 µM", "setting": "CDK8", "result": 97, "unit": "%"}, {"measurement": "remaining binding at 10 µM", "setting": "CSNK1G2", "result": 90, "unit": "%"}, {"measurement": "remaining binding at 10 µM", "setting": "ERK1", "result": 96, "unit": "%"}, {"measurement": "remaining binding at 10 µM", "setting": "MARK3", "result": 100, "unit": "%"}, {"measurement": "remaining binding at 10 µM", "setting": "ABL1-phosphorylated", "result": 84, "unit": "%"}, {"measurement": "remaining binding at 10 µM", "setting": "AAK1", "result": 100, "unit": "%"}, {"measurement": "remaining binding at 10 µM", "setting": "CDK3", "result": 74, "unit": "%"}, {"measurement": "remaining binding at 10 µM", "setting": "NDR2", "result": 100, "unit": "%"}, {"measurement": "remaining binding at 10 µM", "setting": "SBK1", "result": 100, "unit": "%"}, {"measurement": "remaining binding at 10 µM", "setting": "KIT-autoinhibited", "result": 93, "unit": "%"}, {"measurement": "remaining binding at 10 µM", "setting": "PIK3CA(E545A)", "result": 100, "unit": "%"}, {"measurement": "remaining binding at 10 µM", "setting": "CSNK1G3", "result": 95, "unit": "%"}, {"measurement": "remaining binding at 10 µM", "setting": "PIK3C2B", "result": 93, "unit": "%"}]}
